Measurements as given in the NIST ThermoML archive (doi:10.1021/je0302295).
± gives the expanded uncertainty stated by the source.

How the values were obtained:
[1] = activity coefficient (dimensionless); of the first substance listed, at infinite dilution; xn = mol fraction of the nth substance listed; conditions: Liquid, Static method, x1 = 0
[2] = 293.15 K, 101.33 kPa, Liquid
[3] = refractive index (Na D-line) (dimensionless); conditions: 293.15 K; 101.33 kPa; Liquid; Standard Abbe refractometry

Compound	activity coefficient ([1]; 303.15 K)	activity coefficient ([1]; 313.15 K)	activity coefficient ([1]; 323.15 K)	activity coefficient ([1]; 333.15 K)	activity coefficient ([1]; 343.15 K)	mass density ([2]; Vibrating tube method) [kg/m3]	refractive index [3]	mass density [2] [kg/m3]
CCCCO [butan-1-ol] + CCCCCCCC	32.1 ± 1.6	23.9 ± 0.8	18.4 ± 0.4	14.5 ± 0.4	11.2 ± 0.8	–	–	–
CCCCO [butan-1-ol] + CCCCCCC	31.3 ± 3	24.5 ± 1	19.3 ± 1	14.6 ± 0.8	11.6 ± 0.4	–	–	–
CCCCCCCC [octane]	–	–	–	–	–	702.76 ± 0.2	1.3973 ± 0.0007	–
CCCO [propan-1-ol] + CCCCCCCC	34.2 ± 1.8	26.5 ± 1.4	20.5 ± 0.5	16.2 ± 0.3	12.9 ± 0.2	–	–	–
CCCO [propan-1-ol] + CCCCCCC	36.2 ± 1.1	27.2 ± 0.7	21.2 ± 1	15.8 ± 0.4	12.5 ± 0.2	–	–	–
CCCCO [butan-1-ol]	–	–	–	–	–	–	1.3992 ± 0.0007	809.68 ± 0.29
CCCCCCC [heptane]	–	–	–	–	–	683.79 ± 0.21	1.3876 ± 0.0007	–
CCCO [propan-1-ol]	–	–	–	–	–	–	1.3855 ± 0.0007	803.55 ± 0.29
